Data published in ChEMBL document CHEMBL5528052, “Single Deletion Unmasks Hidden Anti-Gram-Negative Bacterial Activity of an Insect Defensin-Derived Peptide” (J Med Chem, 2024).
The source made the active and inactive calls. The rule behind the calls is not given here. Peptide text beside a SMILES is read from it.

What was measured:
[1] = Solubility of compound in guanidine hydrochloride at 1 mg/ml by RP-HPLC analysis; type: physicochemical
[2] = Solubility of compound in water at 1 nmol by RP-HPLC analysis; type: physicochemical; conditions: buffer
[3] = Retention time of the compound by RP-HPLC analysis; type: physicochemical
Priestia megaterium = experiment: Antimicrobial activity against Bacillus megaterium CGMCC 1.0459 assessed as lethal concentration; type: functional
Bacillus subtilis = experiment: Antimicrobial activity against Bacillus subtilis CGMCC 1.2428 assessed as lethal concentration; type: functional
Curtobacterium luteum = experiment: Antimicrobial activity against Curtobacterium luteum assessed as lethal concentration; type: functional
[4] = system: Lysinibacillus fusiformis; experiment: Antimicrobial activity against Lysinibacillus fusiformis assessed as lethal concentration; type: functional
Micrococcus luteus [5] = experiment: Antimicrobial activity against Micrococcus luteus CGMCC 1.0290 assessed as lethal concentration; type: functional
Staphylococcus [6] = experiment: Antimicrobial activity against methicillin-resistant coagulase negative Staphylococcus P1369 assessed as lethal concentration; type: functional
Staphylococcus aureus [7] = experiment: Antimicrobial activity against methicillin-resistant Staphylococcus aureus P1374 assessed as lethal concentration; type: functional
Staphylococcus aureus [8] = experiment: Antimicrobial activity against penicillin-resistant Staphylococcus aureus P1383 assessed as lethal concentration; type: functional
Staphylococcus aureus [9] = experiment: Antimicrobial activity against methicillin-resistant Staphylococcus aureus P1386 assessed as lethal concentration; type: functional
[10] = system: Staphylococcus epidermidis; experiment: Antimicrobial activity against penicillin-resistant Staphylococcus epidermidis P1389 assessed as lethal concentration; type: functional
Staphylococcus aureus [11] = experiment: Antimicrobial activity against Staphylococcus aureus J685 assessed as lethal concentration; type: functional
Staphylococcus warneri = experiment: Antimicrobial activity against Staphylococcus warneri ATCC 1.2824 assessed as lethal concentration; type: functional
Streptococcus mutans [12] = experiment: Antimicrobial activity against Streptococcus mutans ATCC 1.2499 assessed as lethal concentration; type: functional
Streptococcus salivarius = experiment: Antimicrobial activity against Streptococcus salivarius ATCC 1.2498 assessed as lethal concentration; type: functional
Streptococcus sanguinis = experiment: Antimicrobial activity against Streptococcus sanguinis ATCC 1.2497 assessed as lethal concentration; type: functional
Alcaligenes faecalis = experiment: Antimicrobial activity against Alcaligenes faecalis CGMCC 1.1837 assessed as lethal concentration; type: functional
Escherichia coli [13] = experiment: Antimicrobial activity against Escherichia coli J16c assessed as lethal concentration; type: functional
Escherichia coli [14] = experiment: Antimicrobial activity against Escherichia coli J23a assessed as lethal concentration; type: functional
Escherichia coli [15] = experiment: Antimicrobial activity against Escherichia coli J14b assessed as lethal concentration; type: functional
Escherichia coli [16] = experiment: Antimicrobial activity against Escherichia coli G2b assessed as lethal concentration; type: functional
Escherichia coli [17] = experiment: Antimicrobial activity against Escherichia coli J45b assessed as lethal concentration; type: functional
Escherichia coli [18] = experiment: Antimicrobial activity against Escherichia coli DH5alpha assessed as lethal concentration; type: functional
Pseudomonas aeruginosa [19] = experiment: Antimicrobial activity against Pseudomonas aeruginosa O1 assessed as lethal concentration; type: functional
Pseudomonas aeruginosa [20] = experiment: Antimicrobial activity against Pseudomonas aeruginosa assessed as lethal concentration; type: functional
Pseudomonas aeruginosa [21] = experiment: Antimicrobial activity against Pseudomonas aeruginosa FRD1 assessed as lethal concentration; type: functional
Pseudomonas aeruginosa [22] = experiment: Antimicrobial activity against Pseudomonas aeruginosa 374 assessed as lethal concentration; type: functional
Pseudomonas aeruginosa [23] = experiment: Antimicrobial activity against Pseudomonas aeruginosa 11082603 assessed as lethal concentration; type: functional
Pseudomonas aeruginosa [24] = experiment: Antimicrobial activity against Pseudomonas aeruginosa 11082616 assessed as lethal concentration; type: functional
Pseudomonas aeruginosa [25] = experiment: Antimicrobial activity against Pseudomonas aeruginosa 11092304 assessed as lethal concentration; type: functional
Pseudomonas aeruginosa [26] = experiment: Antimicrobial activity against Pseudomonas aeruginosa 11092618 assessed as lethal concentration; type: functional
Pseudomonas aeruginosa [27] = experiment: Antimicrobial activity against Pseudomonas aeruginosa DH assessed as lethal concentration; type: functional
Pseudomonas aeruginosa [28] = experiment: Antimicrobial activity against Pseudomonas aeruginosa QT1 assessed as lethal concentration; type: functional
Ralstonia solanacearum = experiment: Antimicrobial activity against Ralstonia solanacearum assessed as lethal concentration; type: functional
Salmonella enterica [29] = experiment: Antimicrobial activity against Salmonella enterica ATCC 14028 assessed as lethal concentration; type: functional
[30] = system: Stenotrophomonas maltophilia; experiment: Antimicrobial activity against Stenotrophomonas maltophilia CGMCC 1.1788 assessed as lethal concentration; type: functional
Geotrichum candidum = experiment: Antifungal activity against Geotrichum candidum CCTCC AY 93038 assessed as lethal concentration; type: functional
Komagataella pastoris = experiment: Antifungal activity against Pichia pastoris X33 assessed as lethal concentration; type: functional
Streptococcus mutans [31] = experiment: Antimicrobial activity against Streptococcus mutans ATCC 1.2499 at 1 nmol relative to control; type: functional, organism-based
Staphylococcus [32] = experiment: Antimicrobial activity against methicillin-resistant coagulase negative Staphylococcus P1369 at 0.25 to 1 nmol; type: functional, organism-based; conditions: dose 0.25-1 nmol
Salmonella enterica [33] = experiment: Antimicrobial activity against Salmonella enterica ATCC 14028 at 0.25 to 1 nmol; type: functional, organism-based; conditions: dose 0.25-1 nmol
[34] = Stability of compound in PBS at pH 7 measured after 3 days; type: physicochemical; conditions: buffer, pH 7, 72 h; time 3 day
Cell membrane [35] = experiment: Induction of membrane disruption in Staphylococcus epidermidis incubated for 90 mins by SEM analysis; type: cell membranes
Cell membrane [36] = experiment: Induction of membrane disruption in Staphylococcus epidermidis incubated for 30 mins by transmission electron microscopic analysis; type: cell membranes
Cell membrane [37] = experiment: Induction of cytoplasmic membrane disruption in Bacillus megaterium assessed as increase in fluorescence intensity by NPN uptake assay; type: cell membranes; conditions: Priestia megaterium
Cell membrane [38] = experiment: Disruption of outer membrane integrity in […] by NPN uptake assay; type: cell membranes
Micrococcus luteus [39] = experiment: Antimicrobial activity against Micrococcus luteus in presence of NaCl; type: functional, organism-based
Micrococcus luteus [40] = experiment: Antimicrobial activity against Micrococcus luteus in presence of human serum; type: functional, organism-based
Erythrocyte = experiment: Hemolytic activity in mouse erythrocytes assessed as hemolysis at 100 uM; type: toxicity, cell-based
HEK293 = experiment: Cytotoxicity against HEK293 cells assessed as reduction in cell viability at 200 microg/ml incubated for 48 hrs by CCK-8 assay; type: toxicity, cell-based; conditions: human, hek293, 48 h, dose 200 µg/ml

CC[C@H](C)[C@H](NC(=O)[C@H](CCCCN)NC(=O)[C@H](CC(N)=O)NC(=O)[C@H](CC(N)=O)NC(=O)[C@H](CS)NC(=O)[C@H](Cc1ccc(O)cc1)NC(=O)[C@H](CS)NC(=O)[C@@H](NC(=O)[C@H](C)N)[C@@H](C)O)C(=O)N[C@@H](CS)C(=O)N[C@H](C(=O)N[C@@H](CS)C(=O)N[C@@H](CCCNC(=N)N)C(=O)N[C@@H](CCCNC(=N)N)C(N)=O)C(C)C (H-ATCYCNNKICVCRR-NH2)
solubility [1]: Soluble
solubility [2]: Soluble
Retention_time [3]: 14.5 min
LD (Priestia megaterium): 1.23 µM
LD (Bacillus subtilis): 2.6 µM
LD (Curtobacterium luteum): 0.87 µM
LD [4]: 0.63 µM
LD (Micrococcus luteus [5]): 2.6 µM
LD (Staphylococcus [6]): 0.27 µM
LD (Staphylococcus aureus [7]): 4.62 µM
LD (Staphylococcus aureus [8]): 1.17 µM
LD (Staphylococcus aureus [9]): 3.46 µM
LD [10]: 12.79 µM
LD (Staphylococcus aureus [11]): 7.01 µM
LD (Staphylococcus warneri): 4.17 µM
LD (Streptococcus mutans [12]): 3.22 µM
LD (Streptococcus salivarius): 2.51 µM
LD (Streptococcus sanguinis): 2.58 µM
LD (Alcaligenes faecalis): 10.4 µM
LD (Escherichia coli [13]): 7.86 µM
LD (Escherichia coli [14]): 7.86 µM
LD (Escherichia coli [15]): 12.9 µM
LD (Escherichia coli [16]): 12.9 µM
LD (Escherichia coli [17]): 7.14 µM
LD (Escherichia coli [18]): 21.42 µM
LD (Pseudomonas aeruginosa [19]): 21.42 µM
LD (Pseudomonas aeruginosa [20]): 7.32 µM
LD (Pseudomonas aeruginosa [21]): 21.95 µM
LD (Pseudomonas aeruginosa [22]): 35.1 µM
LD (Pseudomonas aeruginosa [23]): 15.38 µM
LD (Pseudomonas aeruginosa [24]): 35.1 µM
LD (Pseudomonas aeruginosa [25]): 43.43 µM
LD (Pseudomonas aeruginosa [26]): 75.89 µM
LD (Pseudomonas aeruginosa [27]): 49.32 µM
LD (Pseudomonas aeruginosa [28]): 22.87 µM
LD (Ralstonia solanacearum): 17.5 µM
LD (Salmonella enterica [29]): 4.88 µM
LD [30]: 21.72 µM
LD (Geotrichum candidum): 9.62 µM
LD (Komagataella pastoris): 7.86 µM
Activity (Streptococcus mutans [31]): inactive
Activity (Staphylococcus [32]): Active
Activity (Salmonella enterica [33]): Active
Stability [34]: Stable
Activity (Cell membrane [35]): Active
Activity (Cell membrane [36]): Active
Activity (Cell membrane [37]): Active
Activity (Cell membrane [38]): Active
Activity (Micrococcus luteus [39]): Active
Activity (Micrococcus luteus [40]): Active
Activity (Erythrocyte): Non-Toxic
Activity (HEK293): Non-Toxic
